In patent US5561122A, “Combretastatin A-4 prodrug” (Arizona Board of Regents acting on behalf of Arizona State …, priority 1994, dated 1996):
Read-outs that look alike come from different tables or passages of the source.

Tests used:
[1] = stability / reaction with water; format: physicochemical
[2] = test system: NCI 60 cell line panel (human tumor cell lines); assay: NCI 60 cell line full-panel screen (growth inhibition) with COMPARE analysis; format: cell-based; conditions: for GI50: Homo sapiens, 60 cell, read-out: mean panel GI50 concentration
Description: The following measures are used to express drug activity by giving the drug dose which reduces cell growth to a specified percentage of growth:
ED50 (P388) and GI50 (HTCL) are the drug doses needed to reduce the percent growth to 50%. There is no mathematical difference between ED50 and GI50, which are both calculated using the same formula. The only difference is historical usage.
Total Growth Inhibition ("TGI") is the drug dose needed to yield zero percent growth, i.e., just as many cells at the end of the experiment as were present in the beginning. Whether just as many cells were killed as were produced (steady state), or no growth occurred (total inhibition), cannot be distinguished.
Lethal Concentration 50% ("LC50 ") is the drug concentration which reduces growth to -50%, i.e., removes half of the cells originally present at the beginning of the experiment.
Each drug is tested at five (5) doses: 100 - 10 - 1 - 0.1 -0.01 μg/ml. Percent Growths are calculated for each dose. The two (or three) doses with growth values above, below, (or near to) 50% growth are used to calculate the ED50 /GI50 using a linear regression formula. The log of the dose is used during the regression computation. If no dose yields a growth value under 50%, the results are expressed as: ED50 >(highest dose). If no dose yields growth higher than 50% growth, then ED50 <(lowest dose). Similar calculations are performed for the TGI at 0% growth, and at -50% growth for the LC50.
At the start of an experiment, cells from the in vitro cell cultures are inoculated into the appropriate tubes or microtiter plates. One set of control tubes/plates is immediately counted to determine the number of cells at the start of the experiment. This is the "baseline count" or "Tzero reading". At the end of the experiment (48 hours later) a second set of control tubes/plates is analyzed to determine the "Control Growth" value. The growth (or death) of cells relative to the initial quantity of cells is used to define the "Percent of Growth".
For further information about the testing protocols and procedures see Anne Monks et al., "Feasibility of a High-Flux Anticancer Drug Screen Using a Diverse Panel of Cultured Human Tumor Cell Lines", 83 J. Nat. Cancer Inst. No. 11, pp. 757-66 (5 Jun. 1991) and […], "Status of the NCI Preclinical Antitumor Drug Discovery Screen" 3 Princ & Practice of Oncology Updates No. 10, pp. 1-12 (October 1989).
By definition a pro-drug is a precursor which will undergo metabolic activation in vivo to the active drug. […] Combretastatin A-4 (1a) and prodrug (1h) were then comparatively evaluated against the full-panel NCI screen (M. R. Boyd, "Status of the NCI Preclinical Antitumor Drug Discovery Screen: Implications for Selection of New Agents for Clinical trial," 3 Cancer: Principles and Practice of Oncology Updates No. 10, pp1-12 (1989) and M. R. Boyd et al. "The Future of New Drug Development. Section I. Introduction to Cancer Therapy," Current Therapy in Oncology. Philadelphia: Decker (1993)). […]

tubulin = conditions: Hamel et al., 1989; cited from earlier work
cancer cell = conditions: Von Hoff et al., 1993; cited from earlier work

SMILES: COc1ccc(/C=C\c2cc(OC)c(OC)c(OC)c2)cc1O [Compound 1b]
- reaction with water [1]: regenerated combretastatin A-4

SMILES: COc1ccc(/C=C\c2cc(OC)c(OC)c(OC)c2)cc1OP(=O)(O)O [Compound 1f, Ammonium hydrogen combretastatin A-4 3-O Phosphate]
- aqueous solubility (in words) (water solubility): most soluble

SMILES: COc1ccc(/C=C\c2cc(OC)c(OC)c(OC)c2)cc1O [Compound 1c]
- reaction with water [1]: regenerated combretastatin A-4

SMILES: COc1ccc(/C=C\c2cc(OC)c(OC)c(OC)c2)cc1OP(=O)(O)O [Compound 1h, Disodium combretastatin A-4 3-O-Phosphate]
- GI50 ([2]; 48 h): 6.89 nM
- Pearson correlation coefficient for the differential cytotoxicity profiles (TGI-COMPARE) ([2]; combretastatin A-4 (1a) vs its prodrug (1h)): 0.91
- cell growth inhibitory activity ([2]; compared with combretastatin (1a)): comparable
- in vitro activity levels in the NCI 60 cell line panel ([2]; compared with combretastatin A-4, activity level and COMPARE algorithm): reasonably similar

SMILES: COc1ccc(/C=C\c2cc(OC)c(OC)c(OC)c2)cc1O [Compound 1a, combretastatin A-4]
- GI50 ([2]; full-panel NCI screen, mean over panel, quadruplicate, 48 hours): 6.61 nM
- tubulin assembly inhibition (tubulin): potent
- cancer cell growth inhibition (cancer cell): potent

SMILES: COc1ccc(/C=C\c2cc(OC)c(OC)c(OC)c2)cc1OC(=O)CCC(=O)O [Compound 1d]
- reaction with water [1]: regenerated combretastatin A-4
- aqueous solubility (in words) (water solubility): essentially insoluble

SMILES: COc1ccc(/C=C\c2cc(OC)c(OC)c(OC)c2)cc1OP(=O)(O)O [Compound 1g, Dipotassium combretastatin A-4 3-O-phosphate]
- stability (in words) [1]: most stable
